Experimental data taken from patent US8221997B2, “Microorganism and method for producing carotenoid using the same” (Tosoh Corporation, priority 2005, dated 2012).

System: Paracoccus sp. strain TSN18E7
Experiment: Evaluation of growth ability against metabolic analogue β-ionone (colony formation on plate culture medium)
Type: cell-based
Conditions: plate culture medium of Table 2 with β-ionone in DMSO at final 0.01, 1, 2, 5 and 10 mM; 5 days at 25° C.; colonies visually counted
Description: bacterium Paracoccus sp. strain TSN18E7 was inoculated in 5 mL of liquid medium shown in Table 1, and cultured for one (1) day at 25° C. under shaking and 150 rpm. The culture solution was diluted in a culture medium shown in Table 1, and spread on a plate culture medium having a composition shown in Table 2 supplemented with β-ionone (Aldrich) dissolved in dimethylsulfoxide (DMSO). β-ionone was supplemented at final concentrations of 0.01, 1, 2, 5 and 10 mM. Then the plate culture medium on which strain TSN18E7 was spread was cultured for 5 days at 25° C. Appearing colonies were visually counted and evaluated for growth ability of strain TSN18E7 for each concentration of β-ionone. The strain TSN18E7 inhibited growth in the presence of β-ionone of 1 mM or more, and formation of colony was not observed. We concluded that for separation of β-ionone resistant strain, suitable β-ionone concentration in culture is 1 mM in final concentration.

## CC(=O)/C=C/C1=C(C)CCCC1(C)C [β-ionone]
  β-ionone concentration at which growth of the strain is inhibited and formation of colony is not observed: ≥ 1 mM
